Values of other authors as cited in publication PMC7583271 (Journal of Insect Science, 2020).

Target: antennal binding protein (PxylABP, accession no. AB189031.1)
Settings: unit inferred, ref Deng et al. 2016

SMILES: C=CCN=C=S [Allyl isothiocyanate]
- Kd: 910 nM
